Source: PubChem BioAssay AID1918935 (Molecular Pharmacology Branch, DTP, NCI, 2023)

Test system: 324938-238-R-J1-PDC complex spheroid viability
Test: Anticancer human tumor 324938-238-R-J1-PDC patient-derived bladder carcinoma cell line growth inhibition
Settings: for IC50: curve of first compound; for viability, T/C: stronger effect = lower value
Summary of the method: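 Complex spheroids of tumor cells with HUVEC and human MSCs, exposed to iadademstat combined with other agents. Each agent tested in half-log steps from near clinical Cmax (else 10 microM top), DMSO ≤0.25%.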

[1] = second compound 0.1 µM, first compound 0.000949 µM
[2] = second compound 0.1 µM, first compound 0.003 µM
[3] = second compound 0.1 µM, first compound 0.00949 µM
[4] = second compound 0.1 µM, first compound 0.03 µM
[5] = second compound 0.1 µM, first compound 0.0949 µM
[6] = second compound 0.1 µM, first compound 0.3 µM
[7] = second compound 0.316 µM, first compound 0.000949 µM
[8] = second compound 0.316 µM, first compound 0.003 µM
[9] = second compound 0.316 µM, first compound 0.00949 µM
[10] = second compound 0.316 µM, first compound 0.03 µM
[11] = second compound 0.316 µM, first compound 0.0949 µM
[12] = second compound 0.316 µM, first compound 0.3 µM
[13] = second compound 1 µM, first compound 0.000949 µM
[14] = second compound 1 µM, first compound 0.003 µM
[15] = second compound 1 µM, first compound 0.00949 µM
[16] = second compound 1 µM, first compound 0.03 µM
[17] = second compound 1 µM, first compound 0.0949 µM
[18] = second compound 1 µM, first compound 0.3 µM
[19] = second compound 3.16 µM, first compound 0.000949 µM
[20] = second compound 3.16 µM, first compound 0.003 µM
[21] = second compound 3.16 µM, first compound 0.00949 µM
[22] = second compound 3.16 µM, first compound 0.03 µM
[23] = second compound 3.16 µM, first compound 0.0949 µM
[24] = second compound 3.16 µM, first compound 0.3 µM
[25] = second compound 10 µM, first compound 0.000949 µM
[26] = second compound 10 µM, first compound 0.003 µM
[27] = second compound 10 µM, first compound 0.00949 µM
[28] = second compound 10 µM, first compound 0.03 µM
[29] = second compound 10 µM, first compound 0.0949 µM
[30] = second compound 10 µM, first compound 0.3 µM
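Also: spheroids also contain HUVEC and human MSCs and agents combined with iadademstat; spheroids exposed to agents for 7 days before readout.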

CCc1c2c(nc3ccc(O)cc13)-c1cc3c(c(=O)n1C2)COC(=O)[C@]3(O)CC + NC1CC1c1ccc(-c2cccc(O)c2)cc1
IC50 (second compound 0.1 µM): < 0.949 nM | IC50 (second compound 0.316 µM): < 0.949 nM | IC50 (second compound 1 µM): < 0.949 nM | IC50 (second compound 3.16 µM): < 0.949 nM | IC50 (second compound 10 µM): < 0.949 nM | viability, T/C [1]: 8.63% | viability, T/C [2]: 8.28% | viability, T/C [3]: 6.38% | viability, T/C [4]: 2.62% | viability, T/C [5]: 1.19% | viability, T/C [6]: 0.47% | viability, T/C [7]: 7.65% | viability, T/C [8]: 7.41% | viability, T/C [9]: 5.98% | viability, T/C [10]: 2.79% | viability, T/C [11]: 0.46% | viability, T/C [12]: 0.55% | viability, T/C [13]: 6.57% | viability, T/C [14]: 8.14% | viability, T/C [15]: 6.37% | viability, T/C [16]: 1.95% | viability, T/C [17]: 0.51% | viability, T/C [18]: 0.15% | viability, T/C [19]: 6.75% | viability, T/C [20]: 6.96% | viability, T/C [21]: 6.25% | viability, T/C [22]: 2.46% | viability, T/C [23]: 0.53% | viability, T/C [24]: 0.31% | viability, T/C [25]: 10.5% | viability, T/C [26]: 9.76% | viability, T/C [27]: 7.12% | viability, T/C [28]: 2.62% | viability, T/C [29]: 0.17% | viability, T/C [30]: 0.23%

Nc1ncn(C2CC(O)C(CO)S2)c(=O)n1 (stereo not given) + NC1CC1c1ccc(-c2cccc(O)c2)cc1
IC50 (second compound 0.1 µM): 16.4 nM | IC50 (second compound 0.316 µM): 13.3 nM | IC50 (second compound 1 µM): 8.37 nM | IC50 (second compound 3.16 µM): 14.4 nM | IC50 (second compound 10 µM): 9.28 nM | viability, T/C [1]: 84.5% | viability, T/C [2]: 87.4% | viability, T/C [3]: 58.1% | viability, T/C [4]: 37.9% | viability, T/C [5]: 26.6% | viability, T/C [6]: 16.9% | viability, T/C [7]: 78.1% | viability, T/C [8]: 70.5% | viability, T/C [9]: 54% | viability, T/C [10]: 36.9% | viability, T/C [11]: 29% | viability, T/C [12]: 16% | viability, T/C [13]: 63.4% | viability, T/C [14]: 59.2% | viability, T/C [15]: 48.4% | viability, T/C [16]: 38.1% | viability, T/C [17]: 28% | viability, T/C [18]: 16.8% | viability, T/C [19]: 67.2% | viability, T/C [20]: 62% | viability, T/C [21]: 55.2% | viability, T/C [22]: 41.1% | viability, T/C [23]: 32.2% | viability, T/C [24]: 17.5% | viability, T/C [25]: 62.9% | viability, T/C [26]: 57.5% | viability, T/C [27]: 48.8% | viability, T/C [28]: 42.3% | viability, T/C [29]: 29.1% | viability, T/C [30]: 25%

CC1COCCN1c1cc(-c2ccnn2C)c2ccnc(-c3ccn[nH]3)c2n1 (stereo not given) + NC1CCC(NC2CC2c2ccccc2)CC1
IC50 (second compound 0.1 µM): 26 nM | IC50 (second compound 0.316 µM): 40.4 nM | IC50 (second compound 1 µM): 36.3 nM | IC50 (second compound 3.16 µM): 25.8 nM | IC50 (second compound 10 µM): 21.6 nM | viability, T/C (second compound 0.1 µM, first compound 0.00316 µM): 88% | viability, T/C (second compound 0.1 µM, first compound 0.01 µM): 64.2% | viability, T/C (second compound 0.1 µM, first compound 0.0316 µM): 49% | viability, T/C (second compound 0.1 µM, first compound 0.1 µM): 31.5% | viability, T/C (second compound 0.1 µM, first compound 0.316 µM): 17.3% | viability, T/C (second compound 0.1 µM, first compound 1 µM): 13.4% | viability, T/C (second compound 0.316 µM, first compound 0.00316 µM): 76.9% | viability, T/C (second compound 0.316 µM, first compound 0.01 µM): 80.9% | viability, T/C (second compound 0.316 µM, first compound 0.0316 µM): 52.5% | viability, T/C (second compound 0.316 µM, first compound 0.1 µM): 31.2% | viability, T/C (second compound 0.316 µM, first compound 0.316 µM): 17.4% | viability, T/C (second compound 0.316 µM, first compound 1 µM): 15.2% | viability, T/C (second compound 1 µM, first compound 0.00316 µM): 80.8% | viability, T/C (second compound 1 µM, first compound 0.01 µM): 73.2% | viability, T/C (second compound 1 µM, first compound 0.0316 µM): 51.8% | viability, T/C (second compound 1 µM, first compound 0.1 µM): 31.2% | viability, T/C (second compound 1 µM, first compound 0.316 µM): 18.7% | viability, T/C (second compound 1 µM, first compound 1 µM): 14.8% | viability, T/C (second compound 3.16 µM, first compound 0.00316 µM): 72.8% | viability, T/C (second compound 3.16 µM, first compound 0.01 µM): 59.6% | viability, T/C (second compound 3.16 µM, first compound 0.0316 µM): 49.7% | viability, T/C (second compound 3.16 µM, first compound 0.1 µM): 31.8% | viability, T/C (second compound 3.16 µM, first compound 0.316 µM): 19.9% | viability, T/C (second compound 3.16 µM, first compound 1 µM): 15.5% | viability, T/C (second compound 10 µM, first compound 0.00316 µM): 72.3% | viability, T/C (second compound 10 µM, first compound 0.01 µM): 60.3% | viability, T/C (second compound 10 µM, first compound 0.0316 µM): 44.7% | viability, T/C (second compound 10 µM, first compound 0.1 µM): 30.8% | viability, T/C (second compound 10 µM, first compound 0.316 µM): 20.1% | viability, T/C (second compound 10 µM, first compound 1 µM): 14.3%
